Reference: US8912139B2, “Peptide compositions and methods for treating lung injury, asthma, anaphylaxis, angioedema, systemic vascular permeability syndromes, and nasal congestion” (The Board of Trustees of the University of Illinois, priority 2011, dated 2014)
Entries after “also recorded” stand apart in the source; their conditions may differ. Ends that are not written are not given here. Peptide text beside a SMILES is read from it. * marks the point of attachment. Myristoyl = CCCCCCCCCCCCCC(=O)*

Experiments:
IP3R = conditions: background statement, MT destabilizing or stabilizing agents; cited from earlier work
HMVECs = assay: Thrombin-induced Ca2+ release from stores in HMVECs (Fura 2-AM 340/380 ratio); assay type: cell-based; conditions: 5 μg/ml taxol for 20 min prior to thrombin stimulation
Procedure: A. HMVECs pre-treated with AP-attached IP3R3 peptide or control (AP) peptide were loaded with Fura 2-AM and 340/380 ratio was calculated after stimulation of cells with thrombin (50 nM) in the absence and in the presence of extracellular Ca^2+. Arrow, time of thrombin addition. […] The increase is normalized to control non-treated cells from the same experiment (n=4).
The effects of IP3R peptide and taxol were compared in regulating Ca^2+ release.

lung injury = conditions: background statement; cited from earlier work
LPS-induced sepsis = assay: Survival in LPS-induced murine model of sepsis; assay type: in vivo, mice; conditions: for survival rate, LPS LD90, pre-treatment with Myr-EBIN: Myr-EBIN 1 microM/kg i.v. 30 min prior, 1 hr and 24 hrs after LPS
Procedure: (n=11-15 mice/group, p<0.001 AP-IP3R3 vs control treatment (AP control) by ANOVA. Mice were anesthetized prior to retro-orbital i.v. injection of IP3R3 with a mixture of ketamine, 10 mg/ml; xylazine, 0.25 mg/ml and acepromazine, 0.25 mg/ml.
CD-1 mice treated with indicated doses of IP3R3 peptide were i.p. injected with LPS at LD80 dose (50 mg/kg LPS) and were monitored for 5 days. Survival rate (%) was plotted vs. peptide dose in logarithm scale. The sigmoidal dose-response curve was fitted to the data points. n=10 mice/group. Mice were anesthetized prior to retro-orbital injection of peptide with 2.5% isoflurane in room air in an anesthesia induction chamber. Anesthesia was maintained during i.v. injection using a specially designed rodent facemask with a coaxial tube (Harvard Apparatus, AH 72-3026).
Male CD1 mice were challenged by intraperitoneal (i.p.) injection of LD90 doses of LPS. The experimental and control groups received retro-orbital, intravenous (i.v.) injection of EBIN attached to the C-terminus of cell permeant antennapedia peptide (AP) or AP alone at a concentration of 1 microM/kg. Mice were injected tree times, 30 minutes prior to and 1 hr and 24 hrs after LPS administration. Mice were anesthetized prior to retro-orbital injection with a mixture of ketamine (10 mg/ml), xylazine (0.25 mg/ml), and acepromazine (0.25 mg/ml).
FIG. 19 compares the effect of pre- and post treatment with EBIN (SEQ ID NO: 3) on lethality from LPS-induced sepsis. […] Male CD1 mice were challenged by intraperitoneal (i.p.) injection of LD90 doses of LPS. The experimental and control groups received tail vein (i.v.) injection of Myr-EBIN 30 min prior (pre-treatment) or 30 min after (post-treatment) LPS or Myr-control loss-of-binding peptide at a concentration of 1 microM/kg. Pre-treatment group, mice were injected tree times, 30 minutes prior to and 1 hr and 24 hrs after LPS administration; treatment group, mice were injected two times, 30 minutes and 24 hrs after LPS administration. Mice were anesthetized prior to retro-orbital injection with a mixture of ketamine (10 mg/ml), xylazine (0.25 mg/ml), and acepromazine (0.25 mg/ml).
The pharmacological effect of IP3R3 peptide was tested in LPS-induced murine model of sepsis. Male CD1 mice were challenged by intraperitoneal injection (i.p.) of LPS (30 mg/kg body weight) and infiltration of neutrophils in lung, a measure of lung inflammation was determined. Lungs were perfused with PBS, weighed, frozen and used for measuring lung myeloperoxidase (MPO) activity, signature of activated neutrophils. […] Furthermore, it was determined whether IP3R3 peptide protects from polymicrobial sepsis induced by cecal ligation and puncture (CLP). CLP causes lethal peritonitis that is accompanied by acute lung injury (ALI). It is well-excepted and clinically relevant method in experimental rodents.
The dose-response of IP3R3 peptide was further tested in LPS-induced murine model of sepsis. Male CD1 mice were challenged by i.p. injection of LPS at LD80 dose. Mice received a retro-orbital i.v. injection of IP3R3 peptide at doses 0.01, 0.033, 0.1, 0.33, 1.0, 3.3 and 10 μM per kg of the body weight. Mice were injected with IP3R3 peptide three times, 30 minutes prior to, and 1 and 24 hrs after LPS administration. A percent of survived animals in each group was plotted as a function of IP3R3 dose. […] The ED50 (effective dose, 50%) as 80 nM/kg was calculated using a three-parameter logistic equation: y=min+([…])/1+10^LogED50-x Where min and max are minimum and maximum of response.
The effect of EBIN on mortality rate from LPS-induced sepsis was determined. Mice received i.v. retro-orbital injection of AP-EBIN or AP control peptide, 30 minutes prior to and 1 hr after LPS administration at LD90 dose. […] In this experiment, Myr-EBIN was injected in tail vein 30 min and 24 hrs after LPS challenged. […] It is concluded that administration of EBIN prior to systemic inflammation has much higher beneficial outcome.

HPAECs [1] = assay: Agonist-induced intracellular calcium transient in HPAEC monolayers (Fura-2 340/380); assay type: cell-based, Human; conditions: 1 μM Myr-peptide, 50 nM thrombin or 90 μM histamine
Procedure: [Ca2+]i transient after stimulation of HPAEC monolayers with 50 nM thrombin (A) or 90 μM histamine (B). Mean value; n=20 cells. Arrow, time of stimulation.
(§1) To determine the inhibitory properties of EBIN in cells, Human Pulmonary Aorta Endothelial Cell (HPAECs) monolayers pretreated with EBIN or with a control peptide at the concentration of 1 μM were challenged with thrombin. The interaction between EB3 and IP3R3 receptor was analyzed using a Western Blot analysis. […] EBIN but not a control peptide mitigated agonist-induced increase in intracellular calcium. [Ca2-F]i transient after stimulation of HPAEC monolayers with pro-inflammatory cytokines.

HPAECs [2] = assay: NO production in HPAECs (porphyrinic NO electrodes); assay type: cell-based, Human; conditions: first 20 min
Procedure: HPAECs were pretreated with control peptide (loss-of-activity) or Myr-EBIN and basal (A, in response to addition of L-arginin) and agonist-induced (B, thrombin and histamine) NO production was measured for the first 20 min stimulation.
(§2) The activity of nitric oxide synthase 3(eNOS), an endothelial-specific enzyme that produces NO, is regulated by calcium signaling, particularly, through eNOS interaction with calmodulin, and is a known cause of hyperpermeability of endothelial barrier during inflammation. Because EBIN inhibits calcium signaling it was postulated that the barrier-protective effect of EBIN, in part, is due to inhibition of eNOS. Therefore, the effect of EBIN on basal and agonist-induced production of NO was measured. NO formation was measured using porphyrinic NO electrodes coupled to a FAS1 femtostat and a personal computer with electrochemical software (Gamry Instruments). The electrode current, which is proportional to NO concentration, was measured as a function of time.

[3] = test system: histamine-induced vasodilation; assay: Awake blood pressure measurement in mice, histamine-induced vasodilation; assay type: in vivo; conditions: AP-EBIN 1 μM/kg i.v.
Procedure: Awake Blood Pressure Measurement in Mice-Mice were anesthetized and surgically prepared for placement of arterial (carotid) and venous (external jugular) catheters. One hour after surgery the blood pressure was monitored directly using a pressure transducer. Subsequent intravenous (i.v.) injections of AP-EBIN peptide (1 μM/kg body weight; green) or control AP peptide (red) and histamine (10 mg/kg body weight) were performed through jugular vein catheter; the arrow indicates the time of injection.
as §2

EB3/IP3R3 interaction = molecular target: T1, EB3/IP3R3 interaction (Homo sapiens, UniProt Q9UPY8); assay: EB3-IP3R3 interaction by immunoprecipitation/Western blot in HPAECs challenged with thrombin; assay type: cell-based; conditions: HPAECs pretreated with 1 μM AP-EBIN; 50 nM thrombin
T1 construct: HPAECs pretreated with 1 μM AP-EBIN or control peptide (AP) were challenged with 50 nM thrombin; endogenous in cells; host or cells: HPAEC (human pulmonary aorta endothelial cells)
T1 sequence (Q9UPY8 whole entry): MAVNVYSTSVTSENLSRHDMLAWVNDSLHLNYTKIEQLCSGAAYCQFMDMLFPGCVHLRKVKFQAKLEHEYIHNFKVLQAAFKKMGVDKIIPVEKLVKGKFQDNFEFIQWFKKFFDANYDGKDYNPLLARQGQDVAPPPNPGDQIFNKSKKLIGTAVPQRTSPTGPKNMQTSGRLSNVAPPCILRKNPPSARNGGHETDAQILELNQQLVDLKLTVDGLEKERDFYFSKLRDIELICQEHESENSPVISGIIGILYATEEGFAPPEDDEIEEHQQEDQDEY
Procedure: HPAECs pretreated with 1 μM AP-EBIN or control peptide (AP) were challenged with 50 nM thrombin. The interaction between EB3 and IP3R3 was analyzed at different time-points after thrombin stimulation. EB3 was immune-precipitated with specific Abs and resulted precipitates were probed for EB3 and IP3R3.
as §1

[4] = test system: IgE-mediated anaphylactic reaction; assay: Subcutaneous vascular leak (Evans Blue) following IgE-mediated anaphylactic reaction; assay type: in vivo; conditions: mice, intradermal IgE-HSA, HSA challenge 24 hr later; Myr-peptide 1 μM/kg i.v. 30 min prior to HSA
Procedure: Mice received intradermal injection of IgE-HSA in the ear (A) and back (B) and 24 hr later, iv injection of Evans Blue and HSA (1-3) or saline (4-5). Groups 1 and 4 received saline, 2—control peptide (loss-of-binding) and 3 and 5—Myr-EBIN iv injection (1 μM/kg) 30 min prior to HSA. […] C. […] Evans Blue was extracted from ear tissue and Evans Blue concentration was measured at A=620 nm and normalized to the tissue weight. *, p<0.05, n=6 mice/group.
Airway microvascular hyperpermeability, the result of elevated plasma VEGF, is one of the critical factors contributing to abnormal airway function in patients with classic asthma and its cough variant. Because acute allergic asthmatic response is mainly due to IgE-mediated hypersensitivity, we also determined whether EBIN protects from subcutaneous vascular leak following an IgE-mediated anaphylactic reaction. […] These date indicate that EBIN might be effectively used to improve the lung function and overall health of patients with chronic or acute forms of allergic asthma, and curtail the asthmatic inflammatory response.

[5] = 50 mg/kg LPS, vs loss-of-binding peptide

COC(=O)Nc1nc2ccc(C(=O)c3cccs3)cc2[nH]1 [nocodazole]
IP3-gated release of Ca2+ (IP3R): inhibits IP3-gated release of Ca2+

CC(=O)O[C@H]1C(=O)[C@@]2(C)[C@H]([C@H](OC(=O)c3ccccc3)[C@]3(O)C[C@H](OC(=O)[C@H](O)[C@@H](NC(=O)c4ccccc4)c4ccccc4)C(C)=C1C3(C)C)[C@]1(OC(C)=O)CO[C@@H]1C[C@@H]2O [taxol]
IP3-gated release of Ca2+ (IP3R): inhibits IP3-gated release of Ca2+
release of Ca2+ from ER in response to thrombin (HMVECs): inhibits release of Ca^2+ from ER to the same extent as IP3R3 peptide
lung injury in mice models (lung injury): attenuate the lung injury

Myr-EBIN: myristoylated EBIN (SEQ ID NO: 3) (Myristoyl-FTEIPTI)
survival rate, LPS LD90, pre-treatment with Myr-EBIN (LPS-induced sepsis; [5]): significant increase
agonist-induced increase in intracellular calcium ([Ca2+]i transient) (HPAECs [1]): mitigates agonist-induced increase in intracellular calcium

FTEIPTI (EB binding peptide) [EBIN]
basal NO production (HPAECs [2]; response to L-arginin): no effect; also recorded: did not affect basal NO level
agonist-induced NO production (HPAECs [2]; thrombin and histamine): significantly attenuated agonist-induced NO production
survival rate, LPS LD90, pre-treatment with Myr-EBIN (LPS-induced sepsis; [5]): reduced mortality
survival rate, LPS LD90, post-treatment with Myr-EBIN (LPS-induced sepsis; 50 mg/kg LPS, Myr-EBIN 1 microM/kg tail vein 30 min and 24 hrs after LPS, vs loss-of-binding peptide): insignificant improvement in survival rate; also recorded: some but not significant improvement of the survival
survival / mortality, LPS LD90, AP-EBIN (LPS-induced sepsis; CD1 mice, 50 mg/kg LPS i.p., AP-EBIN 1 microM/kg retro-orbital i.v. starting 30 minutes prior to LPS, 120-hr, vs AP, 50 mg/kg): marked improvement in survival rate; also recorded: reduced mortality
baseline (systolic) blood pressure [3]: no effect on baseline blood pressure
histamine-induced blood pressure drop / vasodilation ([3]; histamine 10 mg/kg i.v.): significantly inhibited histamine-induced vasodilation; also recorded: prevented blood pressure drop in response to histamine
interaction between EB3 and IP3R3, basal and after thrombin (EB3/IP3R3 interaction): attenuated basal and thrombin-induced interaction between EB3 and IP3R3; also recorded: markedly reduced
agonist-induced increase in intracellular calcium ([Ca2+]i transient) (HPAECs [1]): significantly inhibited the intracellular calcium flux
subcutaneous vascular leak (Evans Blue) in ear and back [4]: significantly attenuates subcutaneous vascular leak; also recorded: significantly attenuated

CC[C@H](C)[C@H](NC(=O)[C@H](C)NC(=O)[C@@H](NC(=O)[C@@H]1CCCN1C(=O)[C@@H](NC(=O)[C@H](CCC(=O)O)NC(=O)[C@@H](NC(=O)[C@H](Cc1c[nH]c2ccccc12)NC(=O)[C@H](CC(C)C)NC(=O)[C@H](CCCNC(=N)N)NC(=O)[C@H](C)NC(=O)[C@H](Cc1ccccc1)NC(=O)[C@@H](N)CCCCN)[C@@H](C)O)[C@@H](C)CC)[C@@H](C)O)C(=O)N[C@H](C(=O)O)[C@@H](C)O [IP3R3 peptide, KFARLWTEIPTAIT] (H-KFARLWTEIPTAIT-OH)
survival / mortality, LD50 LPS challenge (LPS-induced sepsis; 30 mg/kg LPS i.p., peptide i.v. 30 minutes prior to and 1 hr after LPS, vs AP control): marked improvement in survival rate; also recorded: mortality reduction
toxicity within the dose range (LPS-induced sepsis; mice, 0.01 to 10 μM per kg i.v., three injections): low toxicity

COc1cc2c(c(OC)c1OC)-c1ccc(OC)c(=O)cc1[C@@H](NC(C)=O)CC2 [colchicine]
IP3-gated release of Ca2+ (IP3R): inhibits IP3-gated release of Ca2+
